This passage reports solubility in chloroform results from patent US12551577B2, “7-ethyl-10-hydroxycamptothecin drug precursor with fluorescence activity, and preparation method and use thereof” (SOOCHOW UNIVERSITY, priority 2021, dated 2026).

The nature of this data set: Solubility in chloroform by weight loss method. The format is physicochemical. As to conditions: 2 mg in 300 μL chloroform. On the procedure: The weights of the two centrifuge tubes were recorded on an analytical balance, respectively. […] 300 μL of chloroform was added to the centrifuge tube, shaken, and centrifuged. […] The solubility of different compounds in chloroform was estimated by the weight loss method (where the specific operation includes pipetting the solution, and lyophilizing the remaining solid and weighing).

In the case of `CCc1c2c(nc3ccc(O)cc13)-c1cc3c(c(=O)n1C2)COC(=O)[C@]3(O)CC` [SN38, 7-Ethyl-10-hydroxycamptothecin], the solubility in chloroform entry is listed as “hardly soluble”.
